Values of other authors, collected in US12178851B2, “Methods for administering STING agonists” (GlaxoSmithKline Intellectual Property Development Limited, priority 2017, dated 2024).

Columns and labels:
CT26 syngeneic model [1] = test system: CT26 syngeneic model
CT26 syngeneic model [2] = settings: 20 daily i.v. doses of 20 mg/kg, dosed 4 h after injection of the tumor cells

| Structure (SMILES) | maximally tolerated i.p. dose (CT26 syngeneic model [1]; mouse, in vivo, ip) | cytokine levels in tumor and blood (CT26 syngeneic model [1]; once at 500 ug/mouse i.p.) | tumor growth inhibition (CT26 syngeneic model [1]; once at 500 ug/mouse i.p., established tumors) | efficacy in CT26 model (CT26 syngeneic model [2]) |
| --- | --- | --- | --- | --- |
| Cc1ccc2c(=O)c3cccc(CC(=O)O)c3oc2c1C [DMXAA, 5,6-Dimethylxanthenone-4-Acetic Acid] | ~99 µmol/kg | high cytokine levels both in the tumor and the blood | potently inhibits tumor growth, leading to cures in mice | – |
| Nc1nc2c(ncn2[C@@H]2O[C@@H]3COP(=O)(O)O[C@H]4[C@@H](O)[C@H](n5cnc6c(N)ncnc65)O[C@@H]4COP(=O)(O)O[C@@H]2[C@@H]3O)c(=O)[nH]1 [2′3′-cGAMP] | – | – | – | some efficacy |
